According to PubChem BioAssay (NCI):
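Exposure lasted 48 hours, with cells grown in 96-well plates and compounds tested at five concentrations. TGI marks complete inhibition of growth.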

Columns and labels:
Assay in all cases: inhibition of tumour cell growth, NCI panel, 48 h
OVCAR-8 ovarian = tested on: OVCAR-8 ovarian
SW-620 colon = tested on: SW-620 colon
SN12C renal = tested on: SN12C renal
SK-MEL-2 melanoma = tested on: SK-MEL-2 melanoma
SNB-75 CNS = tested on: SNB-75 CNS
DMS 273 small cell lung = tested on: DMS 273 small cell lung
KM12 colon = tested on: KM12 colon
NCI-H522 lung = tested on: NCI-H522 lung
ACHN renal = tested on: ACHN renal
HCT-116 colon = tested on: HCT-116 colon
HOP-92 NSCLC = tested on: HOP-92 NSCLC
M14 melanoma = tested on: M14 melanoma
UACC-257 melanoma = tested on: UACC-257 melanoma
OVCAR-4 ovarian = tested on: OVCAR-4 ovarian
HT29 colon = tested on: HT29 colon
OVCAR-3 ovarian = tested on: OVCAR-3 ovarian
SR leukemia = tested on: SR leukemia
DLD-1 colon = tested on: DLD-1 colon
SF-295 CNS = tested on: SF-295 CNS
TK-10 renal = tested on: TK-10 renal
MALME-3M melanoma = tested on: MALME-3M melanoma
SNB-78 CNS = tested on: SNB-78 CNS
NCI-H460 lung = tested on: NCI-H460 lung
A549 NSCLC = tested on: A549 NSCLC
UO-31 renal = tested on: UO-31 renal
HL-60(TB) leukemia = tested on: HL-60(TB) leukemia
LXFL 529 NSCLC = tested on: LXFL 529 NSCLC
K-562 leukemia = tested on: K-562 leukemia
SF-268 CNS = tested on: SF-268 CNS
KM20L2 colon = tested on: KM20L2 colon
LOX IMVI melanoma = tested on: LOX IMVI melanoma
MOLT-4 leukemia = tested on: MOLT-4 leukemia
NCI-H23 lung = tested on: NCI-H23 lung
IGROV1 ovarian = tested on: IGROV1 ovarian
SK-OV-3 ovarian = tested on: SK-OV-3 ovarian
RPMI-8226 leukemia = tested on: RPMI-8226 leukemia
COLO 205 colon = tested on: COLO 205 colon
HCT-15 colon = tested on: HCT-15 colon
SNB-19 CNS = tested on: SNB-19 CNS
CAKI-1 renal = tested on: CAKI-1 renal
OVCAR-5 ovarian = tested on: OVCAR-5 ovarian
786-0 renal = tested on: 786-0 renal
SK-MEL-28 melanoma = tested on: SK-MEL-28 melanoma
HOP-62 NSCLC = tested on: HOP-62 NSCLC
HCC-2998 colon = tested on: HCC-2998 colon
SF-539 CNS = tested on: SF-539 CNS
UACC-62 melanoma = tested on: UACC-62 melanoma
NCI-H226 lung = tested on: NCI-H226 lung
XF 498 CNS = tested on: XF 498 CNS
M19-MEL melanoma = tested on: M19-MEL melanoma
SK-MEL-5 melanoma = tested on: SK-MEL-5 melanoma
RXF 393 renal = tested on: RXF 393 renal
U251 CNS = tested on: U251 CNS
EKVX NSCLC = tested on: EKVX NSCLC
CCRF-CEM leukemia = tested on: CCRF-CEM leukemia
DMS 114 small cell lung = tested on: DMS 114 small cell lung
A498 renal = tested on: A498 renal
HS 578T breast = tested on: HS 578T breast
BT-549 breast = tested on: BT-549 breast
T-47D breast = tested on: T-47D breast
PC-3 prostate = tested on: PC-3 prostate
MDA-MB-435 = tested on: MDA-MB-435
MDA-N = tested on: MDA-N
MDA-MB-231 breast = tested on: MDA-MB-231 breast
DU-145 prostate = tested on: DU-145 prostate
MCF7 breast = tested on: MCF7 breast
NCI/ADR-RES ovarian = tested on: NCI/ADR-RES ovarian

Measured: TGI

NC(=O)C(=O)C1C(=O)N(c2ccccc2)N=C1N (centres undefined)
> 100 µM: OVCAR-8 ovarian | SW-620 colon | SN12C renal | SK-MEL-2 melanoma | SNB-75 CNS | DMS 273 small cell lung | KM12 colon | NCI-H522 lung | ACHN renal | HCT-116 colon | HOP-92 NSCLC | M14 melanoma | UACC-257 melanoma | OVCAR-4 ovarian | HT29 colon | OVCAR-3 ovarian | SR leukemia | DLD-1 colon | SF-295 CNS | TK-10 renal | MALME-3M melanoma | SNB-78 CNS | NCI-H460 lung | A549 NSCLC | UO-31 renal | HL-60(TB) leukemia | LXFL 529 NSCLC | K-562 leukemia | SF-268 CNS | KM20L2 colon | LOX IMVI melanoma | MOLT-4 leukemia | NCI-H23 lung | IGROV1 ovarian | SK-OV-3 ovarian | RPMI-8226 leukemia | COLO 205 colon | HCT-15 colon | SNB-19 CNS | CAKI-1 renal | OVCAR-5 ovarian | 786-0 renal | SK-MEL-28 melanoma | HOP-62 NSCLC | HCC-2998 colon | SF-539 CNS | UACC-62 melanoma | NCI-H226 lung | XF 498 CNS

O=NN1CCN=C1c1ccc([N+](=O)[O-])cc1
> 100 µM: OVCAR-8 ovarian | SW-620 colon | SN12C renal | SNB-75 CNS | DMS 273 small cell lung | KM12 colon | M19-MEL melanoma | NCI-H522 lung | ACHN renal | HCT-116 colon | HOP-92 NSCLC | M14 melanoma | UACC-257 melanoma | OVCAR-4 ovarian | SK-MEL-5 melanoma | HT29 colon | OVCAR-3 ovarian | SR leukemia | DLD-1 colon | SF-295 CNS | TK-10 renal | MALME-3M melanoma | SNB-78 CNS | NCI-H460 lung | A549 NSCLC | UO-31 renal | RXF 393 renal | HL-60(TB) leukemia | LXFL 529 NSCLC | K-562 leukemia | SF-268 CNS | KM20L2 colon | LOX IMVI melanoma | MOLT-4 leukemia | NCI-H23 lung | IGROV1 ovarian | SK-OV-3 ovarian | RPMI-8226 leukemia | COLO 205 colon | HCT-15 colon | SNB-19 CNS | CAKI-1 renal | OVCAR-5 ovarian | 786-0 renal | SK-MEL-28 melanoma | HOP-62 NSCLC | HCC-2998 colon | SF-539 CNS | UACC-62 melanoma | NCI-H226 lung | XF 498 CNS | U251 CNS

O=C1C[C@@H]2[C@@H](c3ccccc3)[C@@H]3C(=O)c4ccccc4NC(=O)[C@H]3[C@]2(O)c2ccccc2N1
> 100 µM: OVCAR-8 ovarian | SW-620 colon | SN12C renal | SK-MEL-2 melanoma | SNB-75 CNS | DMS 273 small cell lung | KM12 colon | M19-MEL melanoma | NCI-H522 lung | ACHN renal | HCT-116 colon | M14 melanoma | OVCAR-4 ovarian | SK-MEL-5 melanoma | HT29 colon | OVCAR-3 ovarian | SR leukemia | SF-295 CNS | TK-10 renal | MALME-3M melanoma | SNB-78 CNS | NCI-H460 lung | EKVX NSCLC | A549 NSCLC | UO-31 renal | RXF 393 renal | HL-60(TB) leukemia | CCRF-CEM leukemia | LXFL 529 NSCLC | K-562 leukemia | SF-268 CNS | KM20L2 colon | LOX IMVI melanoma | MOLT-4 leukemia | NCI-H23 lung | IGROV1 ovarian | RPMI-8226 leukemia | COLO 205 colon | HCT-15 colon | SNB-19 CNS | OVCAR-5 ovarian | 786-0 renal | SK-MEL-28 melanoma | HOP-62 NSCLC | DMS 114 small cell lung | UACC-62 melanoma | NCI-H226 lung | XF 498 CNS | U251 CNS

Cc1ccc(NC(=S)C#N)c(C)c1
76 µM: RPMI-8226 leukemia
> 94.9 µM: MALME-3M melanoma
> 100 µM: OVCAR-8 ovarian | SW-620 colon | SN12C renal | SK-MEL-2 melanoma | SNB-75 CNS | KM12 colon | NCI-H522 lung | ACHN renal | HCT-116 colon | HOP-92 NSCLC | A498 renal | M14 melanoma | UACC-257 melanoma | OVCAR-4 ovarian | SK-MEL-5 melanoma | HT29 colon | OVCAR-3 ovarian | HS 578T breast | SR leukemia | SF-295 CNS | TK-10 renal | NCI-H460 lung | EKVX NSCLC | A549 NSCLC | UO-31 renal | RXF 393 renal | CCRF-CEM leukemia | BT-549 breast | K-562 leukemia | SF-268 CNS | LOX IMVI melanoma | MOLT-4 leukemia | NCI-H23 lung | T-47D breast | IGROV1 ovarian | SK-OV-3 ovarian | COLO 205 colon | PC-3 prostate | MDA-MB-435 | HCT-15 colon | SNB-19 CNS | CAKI-1 renal | OVCAR-5 ovarian | 786-0 renal | SK-MEL-28 melanoma | HOP-62 NSCLC | HCC-2998 colon | SF-539 CNS | UACC-62 melanoma | MDA-N | MDA-MB-231 breast | DU-145 prostate | NCI-H226 lung | MCF7 breast | NCI/ADR-RES ovarian | U251 CNS
> 71.2 µM: HL-60(TB) leukemia
